Test results taken from ChEMBL document CHEMBL4680212, “Discovery of T-1101 tosylate as a first-in-class clinical candidate for Hec1/Nek2 inhibition in cancer therapy” (Eur J Med Chem, 2020).

Tests used:
[1] = Tmax in CD-1 mouse at 10 mg/kg, po administered as single dose via gavage by LC-MS/MS analysis; format: ADME, organism-based; details: in vivo
[2] = Oral bioavailability in CD-1 mouse at 10 mg/kg administered as single dose via gavage by LC-MS/MS analysis; format: ADME, organism-based; details: in vivo
[3] = Cmax in CD-1 mouse at 10 mg/kg, po administered as single dose via gavage by LC-MS/MS analysis; format: ADME, organism-based; parameters: route oral, dose 10 mg/kg; details: in vivo
[4] = AUC in CD-1 mouse at 10 mg/kg, po administered as single dose via gavage by LC-MS/MS analysis; format: ADME, organism-based; parameters: dose 10 mg/kg; details: in vivo
[5] = Half life in CD-1 mouse at 10 mg/kg, po administered as single dose via gavage by LC-MS/MS analysis; format: ADME, organism-based; details: in vivo
Huh-7 [6] = assay: Antitumor activity against human Huh-7 cells xenografted in SCID mouse assessed as tumor growth at 50 mg/kg, po administered twice daily for 28 days measured post last dose relative to control; format: functional; details: time 28 day
[7] = Ratio of drug level in tumor to plasma of human Huh-7 cells xenografted SCID mouse at 10 mg/kg, iv measured after 1 hr by LC-MS/MS analysis; format: ADME, organism-based; details: tumour
[8] = Ratio of drug level in tumor to plasma of human Huh-7 cells xenografted SCID mouse at 10 mg/kg, iv measured after 12 hrs by LC-MS/MS analysis; format: ADME, organism-based; details: tumour
[9] = Toxicity in Sprague-Dawley rat assessed as tremor up to 60 mg/kg, po administered as single dose; format: organism-based; details: in vivo
Huh-7 [10] = assay: Antiproliferative activity against human Huh-7 cells by CellTiter 96 Aqueous One Solution Reagent based assay; format: functional; parameters: dose or concentration left out as unconfirmed
[11] = Toxicity in Sprague-Dawley rat assessed as convulsion up to 60 mg/kg, po administered as single dose; format: organism-based; details: in vivo
HeLa [12] = assay: Cell cycle arrest in human HeLa cells assessed as accumulation at S phase at 1 uM measured after 24 hrs by propidium iodide staining based FACS analysis (reference value: […]%); format: functional
[13] = Ratio of drug level in tumor to plasma of human Huh-7 cells xenografted SCID mouse at 10 mg/kg, iv measured after 24 hrs by LC-MS/MS analysis; format: ADME, organism-based; details: tumour
[14] = Toxicity in Sprague-Dawley rat assessed as effect on locomotor activity up to 60 mg/kg, po administered as single dose; format: organism-based; details: in vivo
[15] = Drug level in tumor of human Huh-7 cells xenografted SCID mouse at 10 mg/kg, iv measured after 8 hrs by LC-MS/MS analysis; format: ADME, organism-based, Neoplasm; details: read-out: Drug uptake
[16] = Ratio of drug level in tumor to plasma of human Huh-7 cells xenografted SCID mouse at 10 mg/kg, iv measured after 0.5 hrs by LC-MS/MS analysis; format: ADME, organism-based; details: tumour
MDA-MB-468 [17] = assay: Antiproliferative activity against human MDA-MB-468 cells measured after 96 hrs by CellTiter 96 Aqueous One Solution Reagent based assay; format: functional, cell-based; details: MDA-MB-468, 96 h
Huh-7 [18] = assay: Antitumor activity against human Huh-7 cells xenografted in SCID mouse assessed as tumor growth at 25 mg/kg, po administered once daily for 28 days measured post last dose relative to control; format: functional; details: time 28 day
[19] = Toxicity in Sprague-Dawley rat assessed as restlessness up to 60 mg/kg, po administered as single dose; format: organism-based; details: in vivo
Huh-7 [20] = assay: Antitumor activity against human Huh-7 cells xenografted in SCID mouse assessed as tumor growth at […], po administered twice daily for 28 days measured post last dose relative to control; format: functional; details: time 28 day
[21] = Drug level in tumor of human Huh-7 cells xenografted SCID mouse at 10 mg/kg, iv measured after 24 hrs by LC-MS/MS analysis; format: ADME, organism-based, Neoplasm; details: read-out: Drug uptake
[22] = Drug level in tumor of human Huh-7 cells xenografted SCID mouse at 10 mg/kg, iv measured after 4 hrs by LC-MS/MS analysis; format: ADME, organism-based, Neoplasm; details: read-out: Drug uptake
[23] = Drug level in tumor of human Huh-7 cells xenografted SCID mouse at 10 mg/kg, iv measured after 12 hrs by LC-MS/MS analysis; format: ADME, organism-based, Neoplasm; details: read-out: Drug uptake
[24] = Drug level in tumor of human MDA-MB-231 cells xenografted SCID mouse at 10 mg/kg, iv measured after 2 hrs by LC-MS/MS analysis; format: ADME, organism-based, Neoplasm; details: read-out: Drug uptake
[25] = Toxicity in Sprague-Dawley rat assessed as change in clinical pathology at 60 mg/kg, po measured during 28 days; format: organism-based; details: in vivo, time 28 day
K562 = assay: Antiproliferative activity against human K562 cells measured after 96 hrs by CellTiter 96 Aqueous One Solution Reagent based assay; format: functional, cell-based; details: K562, 96 h
MDA-MB-468 [26] = assay: Induction of mitosis in human MDA-MB-468 cells assessed as mitotic abnormalities at 1 uM measured after 48 hrs by immunofluorescence staining based microscopic analysis (reference value: 23%); format: functional
MCF7 = assay: Antitumor activity against human MCF7 cells xenografted in SCID mouse assessed as tumor growth at 50 mg/kg, po administered twice daily for 28 days measured post last dose relative to control; format: functional; details: time 28 day
[27] = Ratio of drug level in tumor to plasma of human MDA-MB-231 cells xenografted SCID mouse at 10 mg/kg, iv measured after 2 hrs by LC-MS/MS analysis; format: ADME, organism-based; details: tumour
HeLa [28] = assay: Cell cycle arrest in human HeLa cells assessed as accumulation at G1 phase at 1 uM measured after 24 hrs by propidium iodide staining based FACS analysis (reference value: 66.51%); format: functional
Huh-7 [29] = assay: Antitumor activity against human Huh-7 cells xenografted in SCID mouse assessed as tumor growth at […], po administered twice daily for 28 days measured post last dose in presence of sorafenib relative to control; format: functional; details: time 28 day
COLO 205 = assay: Antiproliferative activity against human COLO 205 cells measured after 96 hrs by CellTiter 96 Aqueous One Solution Reagent based assay; format: functional
HeLa [30] = assay: Cell cycle arrest in human HeLa cells assessed as accumulation at sub-G1 phase at 1 uM measured after 24 hrs by propidium iodide staining based FACS analysis (reference value: 3.64%); format: functional
[31] = Ratio of drug level in tumor to plasma of human Huh-7 cells xenografted SCID mouse at 10 mg/kg, iv measured after 4 hrs by LC-MS/MS analysis; format: ADME, organism-based; details: tumour
[32] = Toxicity in Sprague-Dawley rat assessed as lethargy up to 60 mg/kg, po administered as single dose; format: organism-based; details: in vivo
U-937 = assay: Antiproliferative activity against human U-937 cells measured after 96 hrs by CellTiter 96 Aqueous One Solution Reagent based assay; format: functional
[33] = Toxicity in Sprague-Dawley rat assessed as effect on organ at 60 mg/kg, po measured during 28 days; format: organism-based; details: in vivo, time 28 day
HeLa [34] = assay: Antiproliferative activity against human HeLa cells measured after 96 hrs by CellTiter 96 Aqueous One Solution Reagent based assay; format: functional, cell-based
[35] = Ratio of drug level in tumor to plasma of human Huh-7 cells xenografted SCID mouse at 10 mg/kg, iv measured after 8 hrs by LC-MS/MS analysis; format: ADME, organism-based; details: tumour
[36] = target: Voltage-gated inwardly rectifying potassium channel KCNH2 (Homo sapiens, UniProt Q12809); assay: Inhibition of human ERG
Voltage-gated inwardly rectifying potassium channel KCNH2, sequence (Q12809 whole entry): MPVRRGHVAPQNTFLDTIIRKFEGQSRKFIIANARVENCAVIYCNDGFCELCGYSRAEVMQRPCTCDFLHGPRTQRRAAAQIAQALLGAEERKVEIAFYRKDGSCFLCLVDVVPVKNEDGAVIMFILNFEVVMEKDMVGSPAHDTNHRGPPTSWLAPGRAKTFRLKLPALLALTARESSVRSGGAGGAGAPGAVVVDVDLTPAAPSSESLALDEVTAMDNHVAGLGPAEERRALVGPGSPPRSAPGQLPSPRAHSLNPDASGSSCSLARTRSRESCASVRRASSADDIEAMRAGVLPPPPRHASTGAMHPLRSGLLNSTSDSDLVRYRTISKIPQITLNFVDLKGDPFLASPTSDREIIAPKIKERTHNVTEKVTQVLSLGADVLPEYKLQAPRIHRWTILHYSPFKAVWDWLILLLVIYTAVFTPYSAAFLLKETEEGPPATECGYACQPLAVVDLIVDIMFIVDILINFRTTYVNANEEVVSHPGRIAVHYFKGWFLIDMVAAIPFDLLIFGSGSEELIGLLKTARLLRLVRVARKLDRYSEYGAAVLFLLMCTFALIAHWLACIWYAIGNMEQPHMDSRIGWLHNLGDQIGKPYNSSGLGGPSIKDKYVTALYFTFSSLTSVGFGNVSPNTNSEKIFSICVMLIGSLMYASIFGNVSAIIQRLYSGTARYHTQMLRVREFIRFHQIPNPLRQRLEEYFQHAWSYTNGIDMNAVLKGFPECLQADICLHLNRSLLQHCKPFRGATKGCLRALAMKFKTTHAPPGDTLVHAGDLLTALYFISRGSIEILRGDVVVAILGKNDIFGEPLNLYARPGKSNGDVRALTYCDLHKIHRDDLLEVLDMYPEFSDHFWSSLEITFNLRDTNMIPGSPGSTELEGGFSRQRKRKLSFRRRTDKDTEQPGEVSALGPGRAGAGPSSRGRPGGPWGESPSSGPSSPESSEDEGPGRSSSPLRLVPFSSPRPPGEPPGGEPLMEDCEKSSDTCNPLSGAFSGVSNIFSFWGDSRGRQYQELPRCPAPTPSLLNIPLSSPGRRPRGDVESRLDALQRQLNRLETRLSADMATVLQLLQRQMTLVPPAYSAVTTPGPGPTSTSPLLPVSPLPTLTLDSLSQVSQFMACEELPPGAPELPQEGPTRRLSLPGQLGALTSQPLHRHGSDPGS

[37] = Toxicity in Sprague-Dawley rat assessed as change in touch response up to 60 mg/kg, po administered as single dose; format: organism-based; details: in vivo
[38] = Toxicity in Beagle dog assessed as cardiopulmonary effect at 40 mg/kg, po administered as single dose; format: organism-based, Canis lupus familiaris; details: in vivo
Huh-7 [39] = assay: Anticancer activity against human Huh-7 cells after 24 hrs by CellTiter 96 Aqueous One Solution Reagent based assay; format: functional
[40] = Drug level in tumor of human Huh-7 cells xenografted SCID mouse at 10 mg/kg, iv measured after 0.5 hrs by LC-MS/MS analysis; format: ADME, organism-based, Neoplasm; details: read-out: Drug uptake
MDA-MB-231 [41] = assay: Antitumor activity against human MDA-MB-231 cells xenografted in SCID mouse assessed as tumor growth at 25 mg/kg, po administered twice daily for 28 days measured post last dose relative to control; format: functional; details: time 28 day
[42] = Toxicity in Sprague-Dawley rat assessed as change in serum biochemistry at 60 mg/kg, po measured during 28 days; format: organism-based; details: in vivo, time 28 day
[43] = Drug level in tumor of human Huh-7 cells xenografted SCID mouse at 10 mg/kg, iv measured after 1 hr by LC-MS/MS analysis; format: ADME, organism-based, Neoplasm; details: read-out: Drug uptake
HeLa [44] = assay: Cell cycle arrest in human HeLa cells assessed as accumulation at G2/M phase at 1 uM measured after 24 hrs by propidium iodide staining based FACS analysis (reference value: 12.93%); format: functional
BT-474 = assay: Antitumor activity against human BT-474 cells xenografted in SCID mouse assessed as tumor growth at 50 mg/kg, po administered twice daily for 28 days measured post last dose relative to control; format: functional; details: time 28 day
U2OS = assay: Antiproliferative activity against human U2OS cells measured after 96 hrs by CellTiter 96 Aqueous One Solution Reagent based assay; format: functional
MDA-MB-231 [45] = assay: Antiproliferative activity against human MDA-MB-231 cells measured after 96 hrs by CellTiter 96 Aqueous One Solution Reagent based assay; format: functional, cell-based; details: MDA-MB-231, 96 h
MDA-MB-468 [46] = assay: Induction of mitosis in human MDA-MB-468 cells assessed as mitotic abnormalities at 1 uM measured after 24 hrs by immunofluorescence staining based microscopic analysis (reference value: 23%); format: functional

COCCOc1cnc(Sc2cc(C)c(-c3csc(NC(=O)c4ccncc4)n3)c(C)c2)cn1.CS(=O)(=O)O
Tmax [1]: 1.5 h
bioavailability [2]: 58.5%
Cmax [3]: 8440 nM
AUC [4]: 47.5 µM·h
half-life [5]: 3.38 h

COCCOc1cnc(Sc2cc(C)c(-c3csc(NC(=O)c4ccncc4)n3)c(C)c2)cn1
T/C (Huh-7 [6]): 18%
Tmax [1]: 0.5 h
Ratio [7]: 26.1%
Ratio [8]: 60.5%
Activity [9]: Non-Toxic
GI50 (Huh-7 [10]): 35 nM
Activity [11]: Non-Toxic
Activity (HeLa [12]): 15.07%
bioavailability [2]: 50.6%
Ratio [13]: 41.1%
Activity [14]: Non-Toxic
concentration at 8 h [15]: 937 nM
Ratio [16]: 20.7%
IC50 (MDA-MB-468 [17]): 21.5 nM
Cmax [3]: 6300 nM
T/C (Huh-7 [18]): 25%
Activity [19]: Non-Toxic
T/C (Huh-7 [20]): 61%
concentration at 24 h [21]: 59.9 nM
concentration at 4 h [22]: 2070 nM
concentration at 12 h [23]: 507 nM
concentration at 2 h [24]: 2950 nM
Activity [25]: Non-Toxic
IC50 (K562): 18 nM
Activity (MDA-MB-468 [26]): 64%
T/C (MCF7): 52%
Ratio [27]: 24.1%
Activity (HeLa [28]): 54.2%
AUC [4]: 43.5 µM·h
T/C (Huh-7 [29]): 26%
GI50 (COLO 205): 29.1 nM
Activity (HeLa [30]): 20.44%
Ratio [31]: 33.2%
Activity [32]: Non-Toxic
GI50 (U-937): 12.4 nM
Activity [33]: Non-Toxic
IC50 (HeLa [34]): 21.1 nM
Ratio [35]: 35%
half-life [5]: 2.57 h
inhibition (INH) [36]: Not Active
Activity [37]: Non-Toxic
Activity [38]: Non-Toxic
GI50 (Huh-7 [39]): 59.9 nM
concentration at 0.5 h [40]: 3380 nM
T/C (MDA-MB-231 [41]): 40%
Activity [42]: Non-Toxic
concentration at 1 h [43]: 2660 nM
Activity (HeLa [44]): 9.27%
T/C (BT-474): 19%
GI50 (U2OS): 83.2 nM
IC50 (MDA-MB-231 [45]): 14.8 nM
Activity (MDA-MB-468 [46]): 45%
